pIC50, pKi: −log10 of the molar value.

Broadly, the pKi is the negative decadic logarithm of the Ki, by convention in mol/L. Low values mean a high Ki, high ones a low Ki. Broadly, the pIC50 is the negative decadic logarithm of the IC50, by convention in mol/L. Read a high pIC50 as a low IC50.

A short description of experiment [1]: Inhibition of Lucilia cuprina chitinase B.
The target in another experiment is T1, Chitinase B (Serratia marcescens, UniProt P11797).
T1 sequence (P11797 whole entry): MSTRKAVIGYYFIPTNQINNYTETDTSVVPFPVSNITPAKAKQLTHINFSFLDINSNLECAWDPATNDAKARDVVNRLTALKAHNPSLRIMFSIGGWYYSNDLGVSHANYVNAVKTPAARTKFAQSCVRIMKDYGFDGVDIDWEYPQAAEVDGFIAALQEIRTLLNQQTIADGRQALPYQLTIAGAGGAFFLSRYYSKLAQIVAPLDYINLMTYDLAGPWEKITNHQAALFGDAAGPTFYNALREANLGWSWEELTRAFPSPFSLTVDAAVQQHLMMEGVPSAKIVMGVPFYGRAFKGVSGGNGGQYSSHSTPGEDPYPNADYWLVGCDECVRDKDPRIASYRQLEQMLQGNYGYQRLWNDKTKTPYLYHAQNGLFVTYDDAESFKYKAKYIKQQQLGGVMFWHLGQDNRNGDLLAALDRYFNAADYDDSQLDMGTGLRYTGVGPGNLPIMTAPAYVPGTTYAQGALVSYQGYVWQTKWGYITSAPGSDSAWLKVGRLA
Kind of experiment: Binding affinity to Serratia marcescens chitinase B.

In turn, `CC(=O)NC(=N)NCCC[C@@H]1NC(=O)[C@H](CCCC(=O)O)NC(=O)[C@H](Cc2c[nH]cn2)N2C(=O)[C@H](C[C@H]2O)NC(=O)[C@H]2CCCN2C1=O` [ARGADIN] showed a pKi in experiment [1] of 7.70. At Chitinase B, the pIC50 is 8.47.
Regarding `CNC(=O)NC(=N)NCCC[C@@H]1NC(=O)[C@@H](C)NC(=O)C[C@@H](C(=O)O)NC(=O)C[C@@H](C(=O)O)NC(=O)[C@H](Cc2ccccc2)N(C)C1=O` [ARGIFIN], the pKi in experiment [1] was 4.48. Further, at Chitinase B, the pIC50 was 7.00.

The values are drawn from ChEMBL document CHEMBL1157164, “Computational analysis of the binding affinities of the natural-product cyclopentapeptides argifin and argadin to chitinase B from Serratia marcescens” (Bioorg Med Chem, 2008).
